Assay [1] addresses Adenosine A2a (ADORA2A) receptor (Homo sapiens (Human), UniProt P29274). The experiment in a line: ADORA2A Receptor Binding Assay. The following applies: radioligand binding, membrane stock. As for the experimental part: ADORA1A and ADORA2A Receptor Binding Assay
2 μL of each compound (test compounds, high control compound, low control compound) was transferred into individual wells of an assay plate. Also to each individual well, 98 μL of Adenosine A1a membrane stock (for ADORA1A Receptor Binding Assay) or Adenosine A2a membrane stock (for ADORA2A Receptor Binding Assay) was dispensed, followed by 100 μL of radio-labeled ligand. Plates were then sealed, and incubated at room temperature for 1 hour (for ADORA1A Receptor Binding Assay) or 2 hours (for ADORA2A Receptor Binding Assay). Unifilter-96 GF/C filter plates were pre-soaked with 50 μL of 0.3% PEI per well for at least 30 min at room temperature. When binding assays were completed, reaction mixtures were filtered through GF/C plates using a Perkin Elmer Filtermate Harvester, and then each plate was washed 4× with cold wash buffer. Filter plates were then dried for 1 hour at 50° C. After drying, the bottom of the filter plate wells was sealed using Perkin Elmer Unifilter-96 backing seal tape. 50 μL of Perkin Elmer Microscint 20 cocktail was then added, and the top of the filter plate was then sealed using Perkin Elmer TopSeal-A sealing film. ^3H trapped on the filter was counted using a Perkin Elmer MicroBeta2 Reader. Data analysis was performed using GraphPad Prism 5 software, and the “Inhibition [% Control]” was calculated using the following equation: % Inh=(1−Background subtracted Assay value/Background subtracted HC value)*100.

Assay [2] concerns the target Adenosine A2B (ADORA2B) receptor (Homo sapiens (Human), UniProt P29275). The experiment in a line: ADORA2B Receptor Binding Assay. The following applies: radioligand binding, membrane stock. As for the experimental part:
ADORA2B Receptor Binding Assay
100 μL of Adenosine A2B membrane stock was dispensed into individual wells of an assay plate. 1 μL of each compound (test compounds, high control compound, low control compound) was then transferred into individual wells, followed by 100 μL of radio-labeled ligand. Plates were then sealed, and incubated at room temperature for 1 hour. Unifilter-96 GF/C filter plates were pre-soaked with 50 μL of 0.5% BSA per well for at least 30 min at room temperature. When binding assays were completed, reaction mixtures were filtered through GF/C plates using a Perkin Elmer Filtermate Harvester, and then each plate was washed 4× with cold wash buffer. Filter plates were then dried for 1 hour at 50° C. After drying, the bottom of the filter plate wells was sealed using Perkin Elmer Unifilter-96 backing seal tape. 50 μL of Perkin Elmer Microscint 20 cocktail was then added, and the top of the filter plate was then sealed using Perkin Elmer TopSeal-A sealing film. ^3H trapped on the filter was counted using a Perkin Elmer MicroBeta2 Reader. Data analysis was performed using GraphPad Prism 5 software, and the “Inhibition[% Control]” was calculated using the following equation: % Inh=(1−Background subtracted Assay value/Background subtracted HC value)*100.

Molecules are shown by their SMILES. Bounds are passed on as bounds.

Sequence of Adenosine A2a (ADORA2A) receptor (P29274 whole entry): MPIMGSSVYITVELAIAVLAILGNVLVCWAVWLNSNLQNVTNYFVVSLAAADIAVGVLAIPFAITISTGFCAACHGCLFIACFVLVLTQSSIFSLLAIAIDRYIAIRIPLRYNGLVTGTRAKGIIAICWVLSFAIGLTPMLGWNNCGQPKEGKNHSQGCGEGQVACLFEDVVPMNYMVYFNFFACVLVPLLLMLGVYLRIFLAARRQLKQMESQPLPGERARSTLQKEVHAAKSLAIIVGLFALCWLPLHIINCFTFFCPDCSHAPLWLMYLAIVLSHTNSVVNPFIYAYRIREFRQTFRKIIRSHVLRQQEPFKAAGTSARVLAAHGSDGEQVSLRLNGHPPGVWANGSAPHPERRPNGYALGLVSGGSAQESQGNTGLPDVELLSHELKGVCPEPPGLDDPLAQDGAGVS
Sequence of Adenosine A2B (ADORA2B) receptor (P29275 whole entry): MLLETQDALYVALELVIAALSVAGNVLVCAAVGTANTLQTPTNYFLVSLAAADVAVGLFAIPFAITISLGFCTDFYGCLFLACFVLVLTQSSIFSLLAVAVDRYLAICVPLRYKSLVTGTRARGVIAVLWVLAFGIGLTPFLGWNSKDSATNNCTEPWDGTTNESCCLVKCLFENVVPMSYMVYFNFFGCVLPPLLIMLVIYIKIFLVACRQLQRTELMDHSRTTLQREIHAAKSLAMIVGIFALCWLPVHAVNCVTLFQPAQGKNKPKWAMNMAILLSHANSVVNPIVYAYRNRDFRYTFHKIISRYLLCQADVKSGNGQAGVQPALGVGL

`CNc1nc(-c2ccc(C)o2)n2nc(C)nc2c1Cl` [Compound 23, 8-chloro-N,2-dimethyl-5-(5-methylfuran-2-yl)-[1,2,4]triazolo[1,5-c]pyrimidin-7-amine]: the IC50 was 100 to 1000 nM in assay [1] and greater than 1000 nM in assay [2].
The matching figures for `Cc1nc2c(Cl)c(N(C)C)nc(-c3ccc(C)o3)n2n1` [Compound 24, 8-chloro-N,N,2-trimethyl-5-(5-methylfuran-2-yl)-[1,2,4]triazolo[1,5-c]pyrimidin-7-amine]: greater than 1000 nM and greater than 1000 nM.
In the same order, the values of `CC(=O)Nc1cc2nc(C)nn2c(-c2ccc(C)o2)n1` [Compound 25, N-[2-methyl-5-(5-methylfuran-2-yl)-[1,2,4]triazolo[1,5-c]pyrimidin-7-yl]acetamide] are less than 10 nM and less than 10 nM.
As to `Cc1nc2c(C#N)c(N)nc(-c3ccc(C)o3)n2n1` [Compound 26, 7-amino-2-methyl-5-(5-methylfuran-2-yl)-[1,2,4]triazolo[1,5-c]pyrimidine-8-carbonitrile], the IC50 in assay [1] and in assay [2] was less than 10 nM in each case.
Regarding `Cc1nc2c3sc(=O)[nH]c3nc(-c3ccc(C)o3)n2n1` [Compound 27, 4-methyl-7-(5-methylfuran-2-yl)-12-thia-3,5,6,8,10-pentazatricyclo[7.3.0.0^2,6]dodeca-1(9),2,4,7-tetraen-l1-one], the IC50 in assay [1] and in assay [2] was 10 to 100 nM each time.
On to `Cc1nc2c3c(nc(-c4ccc(C)o4)n2n1)NCC3(C)C` [Compound 28, 4,12,12-trimethyl-7-(5-methylfuran-2-yl)-3,5,6,8,10-pentazatricyclo[7.3.0.0^2,6]dodeca-1(9),2,4,7-tetraene], for which the IC50 was 10 to 100 nM in assay [1] and 100 to 1000 nM in assay [2].
The matching figures for `Cc1nc2cc(NC(=O)C3CC3)nc(-c3ccco3)n2n1` [Compound 29, N-[5-(furan-2-yl)-2-methyl-[1,2,4]triazolo[1,5-c]pyrimidin-7-yl]cyclopropanecarboxamide]: less than 10 nM and less than 10 nM.
In the same order, the values of `Cc1nc2c(F)c(N)nc(-c3ccc(C)o3)n2n1` [Compound 30, 8-fluoro-2-methyl-5-(5-methylfuran-2-yl)-[1,2,4]triazolo[1,5-c]pyrimidin-7-amine] are less than 10 nM and 10 to 100 nM.
The matching figures for `Cc1nc2c(C(N)=O)c(N)nc(-c3ccc(C)o3)n2n1` [Compound 32, 7-amino-2-methyl-5-(5-methylfuran-2-yl)-[1,2,4]triazolo[1,5-c]pyrimidine-8-carboxamide]: 100 to 1000 nM and 100 to 1000 nM.
With `Cc1nc2c(Cl)c(N)nc(-c3ccccc3)n2n1` [Compound 33, 8-chloro-2-methyl-5-phenyl-[1,2,4]triazolo[1,5-c]pyrimidin-7-amine], the IC50 was less than 10 nM in assay [1] and 10 to 100 nM in assay [2].
In the same order, the values of `CC(=O)Nc1cc2nc(C(C)C)nn2c(-c2ccc(C)o2)n1` [Compound 34, N-[5-(5-methylfuran-2-yl)-2-propan-2-yl-[1,2,4]triazolo[1,5-c]pyrimidin-7-yl]acetamide] are less than 10 nM and less than 10 nM.
The matching figures for `Cc1nc2c3cc[nH]c3nc(-c3ccc(C)o3)n2n1` [Compound 35, 4-methyl-7-(5-methylfuran-2-yl)-3,5,6,8,10-pentazatricyclo[7.3.0.0^2,6]dodeca-1(9),2,4,7,11-pentaene]: less than 10 nM and less than 10 nM.
In the same order, the values of `Cc1ccc(-c2nc3c(c4nc(C(C)C)nn24)C(C)(C)CN3)o1` [Compound 36, 12,12-dimethyl-7-(5-methylfuran-2-yl)-4-propan-2-yl-3,5,6,8,10-pentazatricyclo[7.3.0.0^2,6]dodeca-1(9),2,4,7-tetraene] are 10 to 100 nM and 100 to 1000 nM.
With `CC(=O)Nc1cc2nc(C)nn2c(-c2ccco2)n1` [Compound 37, N-[5-(furan-2-yl)-2-methyl-[1,2,4]triazolo[1,5-c]pyrimidin-7-yl]acetamide], the IC50 in assay [1] was less than 10 nM; in assay [2] it was 10 to 100 nM.
The matching figures for `Cc1nc2cc(NC(=O)C3CC3)nc(-c3ccc(C4CC4)o3)n2n1` [Compound 38, N-[5-(5-cyclopropylfuran-2-yl)-2-methyl-[1,2,4]triazolo[1,5-c]pyrimidin-7-yl]cyclopropanecarboxamide]: less than 10 nM and 10 to 100 nM.
In the same order, the values of `Cc1nc2c(F)c(NC(=O)C3CC3)nc(-c3ccc(C)o3)n2n1` [Compound 39, N-[8-fluoro-2-methyl-5-(5-methylfuran-2-yl)-[1,2,4]triazolo[1,5-c]pyrimidin-7-yl]cyclopropanecarboxamide] are less than 10 nM and 10 to 100 nM.
In the same order, the values of `Cc1nc2c(Cl)c(N)nc(-c3ccc(C)s3)n2n1` [Compound 40, 8-chloro-2-methyl-5-(5-methylthiophen-2-yl)-[1,2,4]triazolo[1,5-c]pyrimidin-7-amine] are less than 10 nM and less than 10 nM.
In the case of `CC(=O)Nc1cc2nc(C(F)(F)F)nn2c(-c2ccc(C)o2)n1` [Compound 41, N-[5-(5-methylfuran-2-yl)-2-(trifluoromethyl)-[1,2,4]triazolo[1,5-c]pyrimidin-7-yl]acetamide], the IC50 in assay [1] and in assay [2] was less than 10 nM each time.
`Cc1ccc(-c2nc(N)c(Cl)c3nc(C(F)(F)F)nn23)o1` [Compound 42, 8-chloro-5-(5-methylfuran-2-yl)-2-(trifluoromethyl)-[1,2,4]triazolo[1,5-c]pyrimidin-7-amine]: the IC50 in assay [1] and in assay [2] was less than 10 nM each time.
On to `Cc1nc2cc(NC(=O)C3CC3)nc(-c3ccc(C(C)(C)C)o3)n2n1` [Compound 43, N-[5-(5-tert-butylfuran-2-yl)-2-methyl-[1,2,4]triazolo[1,5-c]pyrimidin-7-yl]cyclopropanecarboxamide], for which the IC50 is 10 to 100 nM in assay [1] and greater than 1000 nM in assay [2].
In the same order, the values of `CC(=O)Nc1cc2nc(C)nn2c(-c2cnc(C)o2)n1` [Compound 44, N-[2-methyl-5-(2-methyl-1,3-oxazol-5-yl)-[1,2,4]triazolo[1,5-c]pyrimidin-7-yl]acetamide] are 10 to 100 nM and 10 to 100 nM.
The matching figures for `Cc1nc2c3cc(C)[nH]c3nc(-c3ccc(C)o3)n2n1` [Compound 45, 4,11-dimethyl-7-(5-methylfuran-2-yl)-3,5,6,8,10-pentazatricyclo[7.3.0.0^2,6]dodeca-1(9),2,4,7,11-pentaene]: less than 10 nM and less than 10 nM.
On to `CC(=O)Nc1cc2nc(C(C)C)nn2c(-c2cnc(C)o2)n1` [Compound 47, N-[5-(2-methyl-1,3-oxazol-5-yl)-2-propan-2-yl-[1,2,4]triazolo[1,5-c]pyrimidin-7-yl]acetamide], for which the IC50 was less than 10 nM in assay [1] and 10 to 100 nM in assay [2].
As for `CC(=O)Nc1cc2nc(C(C)C)nn2c(-c2ccco2)n1` [Compound 48, N-[5-(furan-2-yl)-2-propan-2-yl-[1,2,4]triazolo[1,5-c]pyrimidin-7-yl]acetamide], the IC50 in assay [1] and in assay [2] was less than 10 nM each time.
As to `CC(=O)Nc1cc2nc(C(C)C)nn2c(-c2cnco2)n1` [Compound 49, N-[5-(1,3-oxazol-5-yl)-2-propan-2-yl-[1,2,4]triazolo[1,5-c]pyrimidin-7-yl]acetamide], the IC50 in assay [1] lay in the range of 10 to 100 nM; in assay [2], 100 to 1000 nM.
The matching figures for `Cc1ccc(-c2nc(NC(=O)C3CC3)cc3nc(C4CCOC4)nn23)o1` (centres unmarked) [Compound 50, N-[5-(5-methylfuran-2-yl)-2-(oxolan-3-yl)-[1,2,4]triazolo[1,5-c]pyrimidin-7-yl]cyclopropanecarboxamide]: less than 10 nM and 10 to 100 nM.
Turning to `CC(=O)Nc1cc2nc(C)nn2c(-c2cnco2)n1` [Compound 51, N-(2-methyl-5-(oxazol-5-yl)-[1,2,4]triazolo[1,5-c]pyrimidin-7-yl)acetamide], the IC50 in assay [1] was 100 to 1000 nM; in assay [2], greater than 1000 nM.
In the same order, the values of `Cc1nc2cc(NC(=O)C3CC3)nc(-c3ccc(Br)o3)n2n1` [Compound 52, N-[5-(5-bromofuran-2-yl)-2-methyl-[1,2,4]triazolo[1,5-c]pyrimidin-7-yl]cyclopropanecarboxamide] are less than 10 nM and less than 10 nM.

The IC50 is the point on the concentration scale where inhibition reaches its midpoint. Read a low IC50 as inhibition by little substance.
